Values of other authors in patent publication US20260191920A1, “METHODS AND COMPOSITIONS FOR TREATING AND PREVENTING CENTRAL NERVOUS SYSTEM DISORDERS AND OTHER CONDITIONS CAUSED BY GUT MICROBIAL DYSBIOSIS” (HOLOBIOME, INC., priority 2019, published 2026).

What was measured:
[1] = by day 6, mice pretreated with oral antibiotics, regardless of diet; cited from earlier work
germ-free mice = details: chemically synthesized queuine at 0.1 μM in the diet; cited from earlier work
[2] = tested on: (Q+)tRNA^His and (Q+)tRNA^Asn in the liver; details: queuine-deficient mice, intraperitoneal, 325 micrograms per injection, 24 h apart; cited from earlier work

For `[CH3][Hg][Cl]` [methylmercury], the “fraction of ingested dose eliminated” value [1] is given as 0-6%.
For `Nc1nc2[nH]cc(CN[C@H]3C=C[C@H](O)[C@@H]3O)c2c(=O)[nH]1` [queuine, 2-amino-5-((((1S,4S,5R)-4,5-dihydroxy-2-cyclopenten-1-yl)amino)methyl)-1,7-dihydro-4H-pyrrolo (2,3-d) pyrimidin-4-one], the “effect on adverse health effects and death of tyrosine- and queuine-deprived germ-free mice” value (germ-free mice) is given as “prevented emergence of these deleterious effects” and the “(Q+)tRNA^His and (Q+)tRNA^Asn percentages in the liver” value [2] is given as “corresponding increase”.
